Measurements reported in PMC4476283 (Biochemistry, 2015).
Values after ≈ are worked out from the molar mass of the structure shown. Marks after values point to notes of the source that are not given here.

How the values were obtained:
OXA-225 (OXA-23 P225S) = OXA-225 (OXA-23 P225S) (Acinetobacter baumannii, UniProt Q9L4P2, P225S); assay: Steady-state kinetic analysis of β-lactam hydrolysis by OXA-225; format: biochemical; conditions: for kcat / Ks (competition kinetics with ampicillin as reporter substrate) / Km: OXA-225; for Ks (competition kinetics with ampicillin as reporter substrate): from IC50 by Cheng-Prusoff; for Km: 50 mM NaH2PO4, 25 mM NaHCO3, pH 7.4, 25°C
[1] = system: OXA-160 (OXA-24/40 P227S); format: biochemical, Acinetobacter baumannii; conditions: for kcat / Ks (competition kinetics with ampicillin as reporter substrate) / Km: OXA-160; for Ks (competition kinetics with ampicillin as reporter substrate): from IC50 by Cheng-Prusoff; for Km: 50 mM NaH2PO4, 25 mM NaHCO3, pH 7.4, 25°C
OXA-23 = conditions: ref Kaitany et al. [13], cited from earlier work; for Ks (competition kinetics with ampicillin as reporter substrate): from IC50 by Cheng-Prusoff; for Km: 50 mM NaH2PO4, 25 mM NaHCO3, pH 7.4, 25°C
OXA-24/40 = conditions: ref Kaitany et al. [13], cited from earlier work; for Ks (competition kinetics with ampicillin as reporter substrate): from IC50 by Cheng-Prusoff; for Km: 50 mM NaH2PO4, 25 mM NaHCO3, pH 7.4, 25°C
[2] = system: A. baumannii strain that yielded OXA-160; conditions: A. baumannii strain from which OXA-160 was derived; cited from earlier work
[3] = conversion of OXA-24/40 to OXA-160

SMILES: C[C@@H](O)[C@H]1C(=O)N2C(C(=O)O)=C(S[C@@H]3CN[C@H](CNS(N)(=O)=O)C3)[C@H](C)[C@H]12 [Doripenem, doripenem]
- kcat (OXA-225 (OXA-23 P225S)): 0.026 ± 0.002 s⁻¹
- Ks (competition kinetics with ampicillin as reporter substrate) (OXA-225 (OXA-23 P225S)): 0.027 ± 0.005 ^b µM
- kcat [1]: 0.064 ± 0.001 s⁻¹
- Ks (competition kinetics with ampicillin as reporter substrate) [1]: 0.014 ± 0.003 ^b µM
- increase in kcat/Km [1, 3]: 40%
- Ks (competition kinetics with ampicillin as reporter substrate) (OXA-23): 0.018 ± 0.002 ^b µM
- kcat (OXA-23): 0.028 ± 0.003 s⁻¹
- Ks (competition kinetics with ampicillin as reporter substrate) (OXA-24/40): 0.024 ± 0.003 ^b µM
- kcat (OXA-24/40): 0.074 ± 0.001 s⁻¹

SMILES: CO/N=C(\C(=O)N[C@@H]1C(=O)N2C(C(=O)O)=C(COC(C)=O)CS[C@H]12)c1csc(N)n1 [Cefotaxime, cefotaxime]
- kcat (OXA-225 (OXA-23 P225S)): 3.2 ± 0.2 s⁻¹
- Km (OXA-225 (OXA-23 P225S)): 100 ± 20 µM
- kcat [1]: 0.41 ± 0.01 s⁻¹
- Km [1]: 170 ± 5 µM
- Km (OXA-23): 340 ± 30 µM
- kcat (OXA-23): 5.5 ± 0.1 s⁻¹
- Km (OXA-24/40): 750 ± 70 µM
- kcat (OXA-24/40): 0.38 ± 0.01 s⁻¹

SMILES: CO/N=C(\C(=O)N[C@@H]1C(=O)N2C(C(=O)O)=C(CSc3nc(=O)c(=O)[nH]n3C)CS[C@H]12)c1csc(N)n1 [Ceftriaxone, ceftriaxone]
- kcat (OXA-225 (OXA-23 P225S)): 0.051 ± 0.002 s⁻¹
- Ks (competition kinetics with ampicillin as reporter substrate) (OXA-225 (OXA-23 P225S)): 0.48 ± 0.05 ^b µM
- kcat [1]: 0.24 ± 0.01 s⁻¹
- Km [1]: 14 ± 0.8 µM
- Km (OXA-23): 5.4 ± 0.5 µM
- kcat (OXA-23): 0.021 ± 0.001 s⁻¹
- Km (OXA-24/40): 110 ± 10 µM
- kcat (OXA-24/40): 0.035 ± 0.001 s⁻¹

SMILES: C[C@@H](O)[C@H]1C(=O)N2C(C(=O)O)=C(S[C@@H]3CN[C@H](C(=O)N(C)C)C3)[C@H](C)[C@H]12 [meropenem]
- MIC [2]: 16 µg/mL (≈ 41.7 µM)

SMILES: CO/N=C(\C(=O)N[C@@H]1C(=O)N2C(C(=O)[O-])=C(C[N+]3(C)CCCC3)CS[C@H]12)c1csc(N)n1 [cefepime]
- MIC [2]: 64 µg/mL (≈ 133 µM)

SMILES: C[C@@H](O)[C@H]1C(=O)N2C(C(=O)O)=C(SCCN=CN)C[C@H]12 [Imipenem, imipenem]
- kcat (OXA-225 (OXA-23 P225S)): 0.39 ± 0.01 s⁻¹
- Ks (competition kinetics with ampicillin as reporter substrate) (OXA-225 (OXA-23 P225S)): 0.20 ± 0.02 ^b µM
- kcat [1]: 0.12 ± 0.01 s⁻¹
- Ks (competition kinetics with ampicillin as reporter substrate) [1]: 0.043 ± 0.005 ^b µM
- decrease in kcat/Km [1, 3]: 10%
- Ks (competition kinetics with ampicillin as reporter substrate) (OXA-23): 0.20 ± 0.02 ^b µM
- kcat (OXA-23): 0.49 ± 0.01 s⁻¹
- Ks (competition kinetics with ampicillin as reporter substrate) (OXA-24/40): 0.68 ± 0.09 ^b µM
- kcat (OXA-24/40): 2.1 ± 0.1 s⁻¹

SMILES: C[C@H]1[C@H](NC(=O)/C(=N\OC(C)(C)C(=O)O)c2csc(N)n2)C(=O)N1S(=O)(=O)O [Aztreonam, aztreonam]
- kcat (OXA-225 (OXA-23 P225S)): 0.79 ± 0.03 s⁻¹
- Km (OXA-225 (OXA-23 P225S)): 13 ± 2 µM
- kcat [1]: 2.7 ± 0.2 s⁻¹
- Km (OXA-23): 2400 µM
- kcat (OXA-23): 0.24 ± 0.01 s⁻¹
- Km (OXA-24/40): > 1500 µM
- kcat (OXA-24/40): >0.3 s⁻¹
- MIC [2]: 128 µg/mL (≈ 294 µM)

SMILES: CC(C)(O/N=C(\C(=O)N[C@@H]1C(=O)N2C(C(=O)[O-])=C(C[n+]3ccccc3)CS[C@H]12)c1csc(N)n1)C(=O)O [Ceftazidime, ceftazidime]
- kcat (OXA-225 (OXA-23 P225S)): 1.4 ± 0.1 s⁻¹
- Km (OXA-225 (OXA-23 P225S)): 1400 µM
- kcat [1]: >0.80 s⁻¹
- Km [1]: > 3000 µM
- hydrolytic activity (in words) (OXA-23): no activity
- kcat (OXA-23): <0.02 s⁻¹
- hydrolytic activity (in words) (OXA-24/40): no activity
- kcat (OXA-24/40): <0.02 s⁻¹

SMILES: CC1(C)S[C@@H]2[C@H](NC(=O)[C@H](N)c3ccccc3)C(=O)N2[C@H]1C(=O)O [Ampicillin, ampicillin]
- kcat (OXA-225 (OXA-23 P225S)): 150 ± 10 s⁻¹
- Km (OXA-225 (OXA-23 P225S)): 12 ± 1 µM
- gain (increase) in kcat/Km from the P→S substitution (OXA-225 (OXA-23 P225S); OXA-225 compared to OXA-23): ~ 2 fold
- kcat [1]: 93 ± 2 s⁻¹
- Km [1]: 13 ± 1 µM
- gain in kcat/Km from the P→S substitution ([1]; OXA-160 compared to OXA-24/40): ~ 3 fold
- Km (OXA-23): 82 ± 9 µM
- kcat (OXA-23): 460 ± 10 s⁻¹
- Km (OXA-24/40): 180 ± 20 µM
- kcat (OXA-24/40): 480 ± 20 s⁻¹
